Source: patent US7476729B2, “Dbait and uses thereof” (Institut Curie, priority 2003, dated 2009)

Experiments:
[1] = system: γ-H2AX in Hep2 cells; experiment: Kinetics of persistence of DSB sites (γ-H2AX) by FACS in irradiated Hep2 cells; format: cell-based, human; conditions: Hep2, 10 Gy, 0 min to 7 days
Experimental: To investigate the effect of Dbait on ionizing radiation-induced g-H2AX foci formation and loss, Dbait32H-Cy3 (SEQ ID NO: 1) were transfected in the Hep2 cells by superfect (Qiagen). Transfected or untransfected Hep2 cells were irradiated at 10 Gy. Cells were fixed at different times (0 min, 30 min, 1 hour, 5 hours, 24 hours, 48 hours, 72 hours and 7 days). Primary mouse monoclonal antibody for g-H2AX (ser139) (Upstate, Tempcula, Calif., USA) was used in 1/500 dilution and incubated for 2 hours at 0° C., then washed by PBS buffer and incubated with Alexa 488-conjugated second antibody anti mouse IgG (Molecular Probe, Eugene, Oreg., USA) diluted in 1/200 for 1 hour in dark room.

[2] = system: GMA32 cells; experiment: Clonogenicity (clonal survival) assay in GMA32 cells with irradiation or mitotic inhibitors; format: cell-based, Chinese hamster
Experimental: The GMA32 Chinese hamster fibroblast cells permissive of DNA breaks were maintained in MEM medium (Gibco) supplemented with 1 mM sodium pyruvate, 2 mM glutamine, 1×MEM non essential amino acids, 1× penicillin/streptomycin and 10% horse serum. Typically, 2×10^5 to 4×10^5 cells were seeded in medium without antibiotics, in 5 cm diameter Petri dishes 24 hours before the transfection of different Dbait molecules (4.5 μg) with lipofectamine 2000 (LifeTechnologies) as transfection agent (in a 1:3 ratio), according to the manufacturer's instructions. At the end of the transfection the cells were either irradiated (4 Gy) or treated with mitotic inhibitors: nocodazole (200 nM), navelbine (100 nM) or taxol (200 nM).
About 16 hour later the drug was removed and the cells were allowed to recover. Cell irradiation was performed with γ-rays from a ^137Cs source. After a 24 hours recovery, the cells were collected and used either for FACS, western blot analyses or to determine the clonogenicity (survival) and the effect of each treatment.
The effect of radiosensitization and chemosensitization of Dbait molecules in GMA32 cells was evaluated by clonogenicity (clonal survival) assay. For the clonogenicity assay, serial dilutions were made after counting the cells to seed 5 cm Petri dishes with different amounts of cells. The number of cells range from 100-200 (control cells) to 3000 (transfected or/and treated cells). Ten days after, the cells (forming clone) were fixed with 4% paraformaldehyde (20 minutes), then colored with methylene blue (15 minutes), and the number of clone in each plate (in triplicates) was scored.
These drugs are known as potent inhibitors of either polymerization or depolymerization of microtubules. Dbait32 (SEQ ID NO: 1) and Dait32H (SEQ ID NO: 1) were able to enhance to cytotoxic activity of these mitotic inhibitors.

[3] = system: digestive tumors induced in K-Ras^V12G×Apc^1638N transgenic mice; experiment: Chemosensitization of digestive tumors in K-Ras^V12G×Apc^1638N transgenic mice; format: in vivo
From the text: An endogenous mouse tumor model was chosen to assess the ability of Dbait molecules to sensitize anticancer chemotherapy. To this end, transgenic mice carrying K-Ras^V12G and Apc^1638N mutations were used. They were obtained by breeding two transgenic mice: one carries K-Ras^V12G mutant under the control of the mouse villin promoter(pVill/K-Ras^V12G) (Janssen et al., 2002), the other contains Apc^1638N mutation in one allele (Fodde et al., 1994). Transgenic mice with pVill/K-Ras^V12G×Apc^1638N mutations developed spontaneous tumors in the digestive tract at the age of about 5 months and died rapidly.
They were treated at the mean age of 12 weeks by a combination of chemotherapy (5FU+CPT11) and of Dbait32H (SEQ ID NO: 1) versus chemotherapy alone, according to the protocol shown in FIG. 5.1 panel A. The protocol includes three treatment cycles.
Each cycle consists of intraperitoneal injection of 0.6 mg 5FU and 0.6 mg CPT11, along with 0.1 mg Dbait32H (SEQ ID NO: 1) by oral administration, three times a week, followed by one week rest.
5FU (5 fluorouracile, Teva) was prepared in 0.9% NaCl solution at the concentration of 50 mg/ml. CPT11/Irinotecan (Campto, Aventis) was prepared in 0.9% NaCl solution at the concentration of 20 mg/ml. The health status and survival of the mice were monitored till the death. […]

Dbait32H: hairpin double strand DNA with a stem of 32-bp, hexaethyleneglycol linker, phosphorothioate at the free blunt end (DNA ACGCACGGGTGTTGGGTCGTTTGTTCGGATCT; DNA, backbone not given here; hairpin, hexaethyleneglycol loop, 3-bp phosphorothioate at free blunt end)
level of γ-H2AX over time (FACS) [1]: remained high and long | chemosensitization (clonal survival) ([2]; GMA32, 200 nM nocodazole, 100 nM navelbine (vinorelbine) or 200 nM taxol (paclitaxel)): chemosensitization was also observed | radiosensitization (clonal survival) ([2]; GMA32, 4 Gy irradiation): radiosensitization to 4 Gy irradiation was observed | median survival ([3]; 0.1 mg Dbait32H oral with 0.6 mg 5FU and 0.6 mg CPT11 i.p., three times a week, three cycles): 226 days | reduction of tumor numbers (macroscopy and histology) ([3]; 5FU+CPT11 and Dbait32H (n=8) versus chemotherapy alone (n=7), week 18): > 30%
